Measurements published in US8058332B2, “Phosphorus-sulfur FR additives and polymer systems containing same” (priority 2006, dated 2011).

format: physicochemical; settings: TGA, nitrogen 60 mL/min, heating rate 10° C./min, room temperature to 600° C.
Procedure: A useful indicator of thermal stability is a 5% weight loss temperature, which is measured by thermogravimetric analysis as follows: ˜10 milligrams of the phosphorus-sulfur FR additive is analyzed using a TA Instruments model Hi-Res TGA 2950 or equivalent device, with a 60 milliliters per minute (mL/min) flow of gaseous nitrogen and a heating rate of 10° C./min over a range of from room temperature (nominally 25° C.) to 600° C. The mass lost by the sample is monitored during the heating step, and the temperature at which the sample has lost 5% of its initial weight is designated the 5% weight loss temperature (5% WLT). This method provides a temperature at which a sample undergoes a cumulative weight loss of 5 wt %, based on initial sample weight. […] When it is to be used in a melt-processing operation with a combustible polymer, the phosphorus-sulfur FR additive should have a 5% WLT of at least 150° C.

**Q.** Which “5% WLT” value does the source give for “2,2′,2″,2″′-[1,2,4,6-phenylenetetra(methylthio)]tetra[5,5-dimethyl-1,3,2-dioxaphosphorinane]-2,2′,2″,2″′-sulfide [Example 7]” here?
**A.** Its value is 281 °C.

**Q.** With “2,2′-{1,4-phenylenebis[(dimethylsilanediyl)ethane-2,1-diylbicyclo[2.2.1]heptane-6,2-diylthio]}bis(5,5-dimethyl-1,3,2-dioxaphosphorinane) 2,2′-disulfide [Example 27]” as the molecule, how does the “5% WLT” value read?
**A.** Its value is 285 °C.

**Q.** Which “5% WLT” value does the source give for `CC1(C)COP(=S)(SC/C=C/CSP2(=S)OCC(C)(C)CO2)OC1` [Example 1, 2,2′-[2-butene-1,4-diylbis(methylthio)]bis[5,5-dimethyl-1,3,2-dioxaphosphorinane]-2,2′-disulfide] here?
**A.** The value was 241 °C.

**Q.** With `CC1(C)COP(=S)(SCc2ccccc2CSP2(=S)OCC(C)(C)CO2)OC1` [Example 4, 2,2′-[1,2-phenylenebis(methylthio)]bis[5,5-dimethyl-1,3,2-dioxaphosphorinane]-2,2′-disulfide] as the molecule, how does the “5% WLT” value read?
**A.** Its value is 240 °C.

**Q.** With `CC1(C)COP(=O)(SCc2ccccc2CSP2(=O)OCC(C)(C)CO2)OC1` [Example 5, 2,2′-[1,2-phenylenebis(methylthio)]bis[5,5-dimethyl-1,3,2-dioxaphosphorinane]-2,2′-dioxide] as the molecule, how does the “5% WLT” value read?
**A.** Its value is 247 °C.

**Q.** Which “5% WLT” value does the source give for `Cc1c(CSP2(=S)OCC(C)(C)CO2)c(C)c(CSP2(=S)OCC(C)(C)CO2)c(C)c1CSP1(=S)OCC(C)(C)CO1` [Example 8, 2,2′,2″-[2,4,6-trimethyl-1,3,5-phenylenetris(methylthio)]tris[5,5-dimethyl-1,3,2-dioxaphosphorinane]-2,2′,2″-disulfide] here?
**A.** Its value is 283 °C.

**Q.** With `CC1(C)COP(=S)(SCP(=O)(CSP2(=S)OCC(C)(C)CO2)CSP2(=S)OCC(C)(C)CO2)OC1` [Example 16] as the molecule, how does the “5% WLT” value read?
**A.** The value was 243 °C.

**Q.** For `CC1(C)COP(=S)(Sc2nc(SP3(=S)OCC(C)(C)CO3)nc(SP3(=S)OCC(C)(C)CO3)n2)OC1` [Example 17, 2,2′,2″-[s-triazine-2,4,6-tris(thio)]tris[(5,5-dimethyl-1,3,2-dioxaphosphorinane)-2,2′,2″-sulfide]], which “5% WLT” value is on record?
**A.** The value was 249 °C.

**Q.** With `CC1(C)COP(=S)(N(Cc2ccccc2)P2(=S)OCC(C)(C)CO2)OC1` [Example 18, N-benzyl-N-(5,5-dimethyl-2-sulfido-1,3,2-dioxaphosphorinan-2-yl)-5,5-dimethyl-1,3,2-dioxaphosphorinan-2-amine-2-sulfide] as the molecule, how does the “5% WLT” value read?
**A.** The value was 202 °C.

**Q.** With `CC1(C)COP(=S)(Cc2ccccc2CP2(=S)OCC(C)(C)CO2)OC1` [Example 19, [1,2-phenylenebis(methylene)]bis[5,5-dimethyl[1,3,2]dioxaphosphorinane]2,2′-disulfide] as the molecule, how does the “5% WLT” value read?
**A.** Its value is 284 °C.

**Q.** For `CC1(C)COP(=S)(SCCCCSP2(=S)OCC(C)(C)CO2)OC1` [Example 20, 2,2′-[1,4-butylbis(methylthio)]bis[5,5-dimethyl-1,3,2-dioxaphosphorinane]-2,2′-disulfide], which “5% WLT” value is on record?
**A.** The value was 244 °C.

**Q.** Which “5% WLT” value does the source give for `CC1(C)COP(=S)(SC2CC3CC2CC3SP2(=S)OCC(C)(C)CO2)OC1` (stereo not drawn) [Example 21, 2,2′-[bicyclo[2.2.1]heptane-2,5-diylbis(thio)]bis[5,5-dimethyl-1,3,2-dioxaphosphorinane]2,2′-disulfide] here?
**A.** The value was 264 °C.

**Q.** For `CCOC(=O)CC(SP1(=S)OCC(C)(C)CO1)C(=O)OCC` (stereo not drawn) [Example 23], which “5% WLT” value is on record?
**A.** Its value is 218 °C.

**Q.** For `CC(CCCCCCC(C)SP1(=S)OCC(C)(C)CO1)SP1(=S)OCC(C)(C)CO1` (stereo not drawn) [Example 24, 2,2′-[decane-2,9-diylbis(thio)]bis(5,5-dimethyl-1,3,2-dioxaphosphorinane)2,2′-disulfide], which “5% WLT” value is on record?
**A.** Its value is 239 °C.

**Q.** Which “5% WLT” value does the source give for `CC1(C)COP(=S)(SC(c2ccccc2)c2ccccc2)OC1` [Example 25, 2-[(diphenylmethyl)thio]-5,5-dimethyl-1,3,2-dioxaphosphorinane 2-sulfide] here?
**A.** Its value is 238 °C.

**Q.** For `O=P1(SC/C=C/CSP2(=O)Oc3ccccc3-c3ccccc32)Oc2ccccc2-c2ccccc21` (stereo not drawn) [Example 26], which “5% WLT” value is on record?
**A.** Its value is 270 °C.

**Q.** With `CC1(C)COP(=O)(Cc2ccc(CSP3(=S)OCC(C)(C)CO3)cc2)OC1` [Example 28, 2-({4-[(5,5-dimethyl-2-oxido-1,3,2-dioxaphosphorinan-2-yl)methyl]benzyl}thio)-5,5-dimethyl-1,3,2-dioxaphosphorinane-2-sulfide] as the molecule, how does the “5% WLT” value read?
**A.** Its value is 257 °C.

**Q.** With `O=P1(SCc2ccccc2CSP2(=O)Oc3ccccc3-c3ccccc32)Oc2ccccc2-c2ccccc21` (stereo not drawn) [Example 29, 6,6′-[1,2-phenylenebis(methylenethio)]bis(6H-dibenz[c, e][1,2]oxaphosphorin) 6,6′-dioxide] as the molecule, how does the “5% WLT” value read?
**A.** Its value is 262 °C.

**Q.** With `Cc1c(CSP2(=O)Oc3ccccc3-c3ccccc32)c(C)c(CSP2(=O)Oc3ccccc3-c3ccccc32)c(C)c1CSP1(=O)Oc2ccccc2-c2ccccc21` (stereo not drawn) [Example 30, 6,6′,6″-[(2,4,6-trimethylbenzene-1,3,5-triyl)tris(methylenethio)]tris(6H-dibenzo-[c, e][1,2]oxaphosphorin) 6,6′,6″-trioxide] as the molecule, how does the “5% WLT” value read?
**A.** The value was 219 °C.

**Q.** For `CC(COCC(COCC(C)SP1(=S)OCC(C)(C)CO1)(COCC(C)SP1(=S)OCC(C)(C)CO1)COCC(C)SP1(=S)OCC(C)(C)CO1)SP1(=S)OCC(C)(C)CO1` (stereo not drawn) [Example 31], which “5% WLT” value is on record?
**A.** Its value is 241 °C.

**Q.** Which “5% WLT” value does the source give for `CC1(C)COP(=S)(SCc2c(CSP3(=S)OCC(C)(C)CO3)c(CSP3(=S)OCC(C)(C)CO3)c(CSP3(=S)OCC(C)(C)CO3)c(CSP3(=S)OCC(C)(C)CO3)c2CSP2(=S)OCC(C)(C)CO2)OC1` [Example 33, 2,2′,2″,2″′,2″″′,2″″″-[benzene-1,2,3,4,5,6-hexaylhexakis(methylenethio)]hexakis(5,5-dimethyl-1,3,2-dioxaphosphorinane) 2,2′,2″,2″′,2′″″,2″″″-hexasulfide] here?
**A.** The value was 262 °C.

**Q.** For `CC1(C)COP(=S)(SCCC(=O)NCNC(=O)CCSP2(=S)OCC(C)(C)CO2)OC1` [Example 36], which “5% WLT” value is on record?
**A.** Its value is 220 °C.

**Q.** Which “5% WLT” value does the source give for `CC1(C)COP(=S)(SC(c2ccccc2)c2cccc(C(SP3(=S)OCC(C)(C)CO3)c3ccccc3)c2)OC1` (stereo not drawn) [Example 37, 2,2′-{1,3-phenylenebis[(phenylmethylene)thio]}bis(5,5-dimethyl-1,3,2-dioxaphosphorinane) 2,2′-disulfide] here?
**A.** Its value is 259 °C.

**Q.** Which “5% WLT” value does the source give for `S=P1(CC(c2ccccc2)c2ccccc2)OCC2(CO1)COP(=S)(SC(c1ccccc1)c1ccccc1)OC2` (stereo not drawn) [Example 38] here?
**A.** Its value is 240 °C.
